The experiment addresses T1, human AMPK α2β2γ3 (Homo sapiens, UniProt O43741+P54646+Q9UGI9).
T1 construct: expressed in transfected cells; host or cells: HEK293AD cells, MaxCyte bulk electroporation
Briefly: Primary cellular assay: γ3 associated phospho-Thr172 AMPK detection (custom pAMPK Surefire AlphaLISA) in α2β2γ3 bulk transiently transfected HEK293 cells. In kind it is cell-based. The settings on record: activation of human AMPK α2β2γ3 (γ3 pThr172 AMPK signal) in transiently transfected HEK293 cells, 20 minutes compound incubation; for Emax: 20 min, read-out: Assay GMean Asy. Max (%); for EC50: geometric mean EC50, read-out: Assay GMean EC50. In a few lines: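 Transiently co-transfected (α2/β2/γ3 plasmids, electroporation) HEK293AD cells, plated 2 days in low-glucose DMEM+10% FBS, treated 20 min with compounds (11-point half-log dilutions). Lysates read by modified AlphaLISA capturing γ3 with pThr172 antibody detection. % effect relative to 30 μM HPE and DMSO; EC50 and Emax from curve fit.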
(In general: Alpha assays give light when donor and acceptor beads are brought close together.)

[1] abbreviates: geometric mean of the asymptotic max.

Results on 22 compounds are retold here after patent US12637461B2, “Compounds for the activation of AMPK” (PFIZER INC., priority 2022, dated 2026).

T1 sequence (P54646 whole entry): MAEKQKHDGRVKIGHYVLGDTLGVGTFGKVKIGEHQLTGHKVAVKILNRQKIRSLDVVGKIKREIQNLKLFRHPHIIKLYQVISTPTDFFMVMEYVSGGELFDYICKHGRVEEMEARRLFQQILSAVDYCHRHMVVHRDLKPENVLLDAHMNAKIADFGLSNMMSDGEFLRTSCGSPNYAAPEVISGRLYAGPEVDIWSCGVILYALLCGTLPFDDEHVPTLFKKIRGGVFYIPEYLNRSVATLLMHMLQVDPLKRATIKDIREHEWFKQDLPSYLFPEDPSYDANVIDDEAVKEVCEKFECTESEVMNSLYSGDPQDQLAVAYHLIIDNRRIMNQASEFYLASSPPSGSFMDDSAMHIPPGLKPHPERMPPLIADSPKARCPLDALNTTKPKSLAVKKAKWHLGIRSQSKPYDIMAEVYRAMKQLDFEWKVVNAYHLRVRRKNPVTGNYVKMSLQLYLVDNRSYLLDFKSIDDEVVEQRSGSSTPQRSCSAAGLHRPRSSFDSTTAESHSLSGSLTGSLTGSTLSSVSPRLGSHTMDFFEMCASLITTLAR
T1 sequence (O43741 whole entry): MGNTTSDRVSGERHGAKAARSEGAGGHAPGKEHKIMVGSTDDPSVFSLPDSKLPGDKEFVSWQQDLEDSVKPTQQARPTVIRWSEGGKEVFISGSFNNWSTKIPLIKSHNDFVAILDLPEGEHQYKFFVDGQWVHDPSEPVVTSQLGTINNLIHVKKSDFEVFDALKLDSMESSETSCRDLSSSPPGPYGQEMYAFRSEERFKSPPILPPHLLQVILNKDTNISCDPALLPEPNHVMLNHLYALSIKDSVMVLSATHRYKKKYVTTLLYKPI
T1 sequence (Q9UGI9 whole entry): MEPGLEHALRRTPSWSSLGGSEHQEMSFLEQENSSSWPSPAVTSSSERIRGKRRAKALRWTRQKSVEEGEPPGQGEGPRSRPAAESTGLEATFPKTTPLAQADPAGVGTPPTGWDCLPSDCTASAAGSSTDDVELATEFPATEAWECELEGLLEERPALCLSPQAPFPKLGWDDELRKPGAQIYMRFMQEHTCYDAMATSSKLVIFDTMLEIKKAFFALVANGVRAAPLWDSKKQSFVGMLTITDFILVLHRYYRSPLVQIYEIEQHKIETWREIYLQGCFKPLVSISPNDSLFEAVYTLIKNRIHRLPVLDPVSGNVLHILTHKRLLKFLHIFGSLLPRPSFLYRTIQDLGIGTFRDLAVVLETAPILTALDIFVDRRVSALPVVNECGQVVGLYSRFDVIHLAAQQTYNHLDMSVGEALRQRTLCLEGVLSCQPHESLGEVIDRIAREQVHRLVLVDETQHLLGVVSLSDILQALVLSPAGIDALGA

`Cn1cc(F)c(N2C[C@](C)(c3cccc(Cl)c3F)c3c(cnc(NC4CN(C(=O)[C@@H]5CC5(F)F)C4)c3F)C2=O)n1` [compound 39, (4R)-4-(3-chloro-2-fluorophenyl)-6-({1-[(1S)-2,2-difluorocyclopropane-1-carbonyl]azetidin-3-yl}amino)-5-fluoro-2-(4-fluoro-1-methyl-1H-pyrazol-3-yl)-4-methyl-3,4-dihydro-2,7-naphthyridin-1(2H)-one]: the EC50 – broadly, the concentration giving half of the maximal effect – was determined as 68.7 nM. Further, under setting [1], the Emax amounted to 91.2%.

As to `Cn1cc(F)c(N2C[C@](C)(c3cccc(Cl)c3F)c3c(cnc(NC4CN(C(=O)C(C)(C)O)C4)c3F)C2=O)n1` [compound 61, (4R)-4-(3-chloro-2-fluorophenyl)-5-fluoro-2-(4-fluoro-1-methyl-1H-pyrazol-3-yl)-6-{[1-(2-hydroxy-2-methylpropanoyl)azetidin-3-yl]amino}-4-methyl-3,4-dihydro-2,7-naphthyridin-1(2H)-one], the EC50 was 92.2 nM. For the same compound, under setting [1], the Emax turned out to be 100%.

For `C[C@]1(c2cccc(Cl)c2F)CN(c2cc(F)c(CO)cc2F)C(=O)c2cnc(NC3CN(C(=O)[C@@H]4C[C@@H]4F)C3)c(F)c21` [compound 77, (4R)-4-(3-chloro-2-fluorophenyl)-2-[2,5-difluoro-4-(hydroxymethyl)phenyl]-5-fluoro-6-({1-[(1S,2S)-2-fluorocyclopropane-1-carbonyl]azetidin-3-yl}amino)-4-methyl-3,4-dihydro-2,7-naphthyridin-1(2H)-one], the EC50 was 38.4 nM. Besides, the Emax under setting [1] is 78.2%.

With `CN(CC1CC1)C(=O)CN1CC(Nc2ncc3c(c2F)[C@@](C)(c2cccc(Cl)c2F)CN(c2nn(C)cc2F)C3=O)C1` [compound 73, 2-(3-{[(5R)-5-(3-chloro-2-fluorophenyl)-4-fluoro-7-(4-fluoro-1-methyl-1H-pyrazol-3-yl)-5-methyl-8-oxo-5,6,7,8-tetrahydro-2,7-naphthyridin-3-yl]amino}azetidin-1-yl)-N-(cyclopropylmethyl)-N-methylacetamide], the EC50 turned out to be 45.3 nM. The Emax under setting [1] is 46.1%.

Turning to `CNCc1ccc(N2CC(C)(c3cccc(Cl)c3F)c3nc(NC4CN(C(=O)C5CC5F)C4)ncc3C2=O)cc1F` [compound 80, 8-(3-chloro-2-fluorophenyl)-2-({1-[(1S,2S)-2-fluorocyclopropane-1-carbonyl]azetidin-3-yl}amino)-6-{3-fluoro-4-[(methylamino)methyl]phenyl}-8-methyl-7,8-dihydropyrido[4,3-d]pyrimidin-5(6H)-one, from P11 (ENANT-2)], the EC50 is 2500 nM. Moreover, under setting [1], the Emax is 154%.

Regarding `Cn1cnc(N2C[C@](C)(c3cccc(Cl)c3F)c3c(cnc(NC4CN(C(=O)C(C)(C)O)C4)c3F)C2=O)c1` [Example 3, (4R)-4-(3-Chloro-2-fluorophenyl)-5-fluoro-6-{[1-(2-hydroxy-2-methylpropanoyl)azetidin-3-yl]amino}-4-methyl-2-(1-methyl-1H-imidazol-4-yl)-3,4-dihydro-2,7-naphthyridin-1(2H)-one], the concentration for a half-maximal effect (EC50) is 112 nM. Also, the Emax under setting [1] amounted to 56%.

`Cc1c(F)ccc(C2(C)CN(c3ccc(CO)cn3)C(=O)c3cnc(NC4CN(C(=O)N5C[C@@H]6C[C@H]5CO6)C4)c(F)c32)c1F` (single isomer, unassigned) [compound 107]: the EC50 was determined as 32.7 nM. In addition, under setting [1], the Emax was 119%.

As for `CC1(c2cccc(F)c2F)CN(c2ccccc2)C(=O)c2cnc(NC3CN(C(=O)CN4CCCC4)C3)nc21` (centres unmarked) [Example 33, 8-(2,3-Difluorophenyl)-8-methyl-6-phenyl-2-({1-[(pyrrolidin-1-γ1)acetyl]azetidin-3-yl}amino)-7,8-dihydropyrido[4,3-d]pyrimidin-5(6H)-one], the EC50 was 906 nM. Further, the Emax under setting [1] is 104%.

For the compound `Cc1c(F)ccc(C2(C)CN(c3ccc(CO)cn3)C(=O)c3cnc(NC4CN(C(=O)[C@@H]5C[C@@H]5F)C4)c(F)c32)c1F` (single isomer, unassigned) [compound 105], the EC50 is 19.8 nM. In addition, the Emax under setting [1] was determined as 38.4%.

As for `C[C@]1(c2cccc(Cl)c2F)CN(c2ccc(OC(F)F)cn2)C(=O)c2cnc(NC3CN(C(=O)[C@@H]4C[C@@H]4F)C3)c(F)c21` [compound 50, (4R)-4-(3-chloro-2-fluorophenyl)-2-[5-(difluoromethoxy)pyridin-2-yl]-5-fluoro-6-({1-[(1S,2S)-2-fluorocyclopropane-1-carbonyl]azetidin-3-yl}amino)-4-methyl-3,4-dihydro-2,7-naphthyridin-1(2H)-one], the EC50 was 233 nM. Besides, the Emax under setting [1] is 63.7%.

`CC(C)(CO)NC(=O)N1CC(Nc2ncc3c(n2)C(C)(c2cccc(Cl)c2F)CN(c2ncccc2F)C3=O)C1` (centres unmarked) [compound 87, 3-{[8-(3-chloro-2-fluorophenyl)-6-(3-fluoropyridin-2-yl)-8-methyl-5-oxo-5,6,7,8-tetrahydropyrido[4,3-d]pyrimidin-2-yl]amino}-N-(1-hydroxy-2-methylpropan-2-yl)azetidine-1-carboxamide, from P13 (ENANT-2)]: the EC50 was 152 nM. Also, the Emax under setting [1] was 175%.

For the compound `Cn1cnc(N2C[C@](C)(c3cccc(Cl)c3F)c3c(cnc(NC4CN(C(=O)[C@@H]5C[C@@H]5F)C4)c3F)C2=O)c1` [compound 94, (4R)-4-(3-chloro-2-fluorophenyl)-5-fluoro-6-({1-[(1S,2S)-2-fluorocyclopropane-1-carbonyl]azetidin-3-yl}amino)-4-methyl-2-(1-methyl-1H-imidazol-4-yl)-3,4-dihydro-2,7-naphthyridin-1(2H)-one], the EC50 was determined as 212 nM. Also, the Emax under setting [1] came to 50.3%.

For `C[C@]1(c2cccc(Cl)c2F)CN(c2ccc(CCO)cn2)C(=O)c2cnc(NC3CN(C(=O)[C@@H]4C[C@@H]4F)C3)c(F)c21` [compound 48, (4R)-4-(3-chloro-2-fluorophenyl)-5-fluoro-6-({1-[(1S,2S)-2-fluorocyclopropane-1-carbonyl]azetidin-3-yl}amino)-2-[5-(2-hydroxyethyl)pyridin-2-yl]-4-methyl-3,4-dihydro-2,7-naphthyridin-1(2H)-one], the half-maximal effective concentration (EC50) is 110 nM. Moreover, under setting [1], the Emax came to 71.4%.

In the case of `CC1(c2cccc(Cl)c2F)CN(c2ncccc2F)C(=O)c2cnc(NC3CN(C(=O)[C@@H]4C[C@@H]4F)C3)nc21` (single isomer, unassigned) [compound 81], the EC50 is greater than 1060 nM. The Emax under setting [1] was 123%.

As to `CN(C)C(=O)CN1CC(Nc2ccc3c(c2F)C(C)(c2cccc(Cl)c2F)CN(c2nn(C)cc2F)C3=O)C1` (centres unmarked) [compound 90, 2-(3-{[4-(3-chloro-2-fluorophenyl)-5-fluoro-2-(4-fluoro-1-methyl-1H-pyrazol-3-yl)-4-methyl-1-oxo-1,2,3,4-tetrahydroisoquinolin-6-yl]amino}azetidin-1-yl)-N,N-dimethylacetamide, from P18 (ENANT-2)], the EC50 was 147 nM. Also, under setting [1], the Emax amounted to 120%.

Turning to `CC1(c2ccc(F)c(Cl)c2F)CN(c2ccc(CO)cn2)C(=O)c2cnc(NC3CN(C(=O)N4C[C@@H]5C[C@H]4CO5)C3)c(F)c21` (single isomer, unassigned) [compound 103], the EC50 came out at 27.5 nM. Further, the Emax under setting [1] was 113%.

For `Cn1cc(F)c(N2C[C@](C)(c3cccc(Cl)c3F)c3c(cnc(NC4CN(CC(=O)N5CCCC5)C4)c3F)C2=O)n1` [compound 65, (4R)-4-(3-chloro-2-fluorophenyl)-5-fluoro-2-(4-fluoro-1-methyl-1H-pyrazol-3-yl)-4-methyl-6-({1-[2-oxo-2-(pyrrolidin-1-yl)ethyl]azetidin-3-yl}amino)-3,4-dihydro-2,7-naphthyridin-1(2H)-one], the concentration giving a half-maximal response (EC50) was found to be 55.1 nM. Besides, the Emax under setting [1] is 83.4%.

For `Cn1cc(F)c(N2CC(C)(c3cccc(Cl)c3F)c3c(ccc(NC4CN(CC(=O)N5CCOCC5)C4)c3F)C2=O)n1` (centres unmarked) [compound 91, 4-(3-chloro-2-fluorophenyl)-5-fluoro-2-(4-fluoro-1-methyl-1H-pyrazol-3-yl)-4-methyl-6-({1-[2-(morpholin-4-yl)-2-oxoethyl]azetidin-3-yl}amino)-3,4-dihydroisoquinolin-1(2H)-one,from P18 (ENANT-2)], the EC50 came to 168 nM. The Emax under setting [1] came out at 99.7%.

On to `CC1(c2cccc(F)c2F)CN(c2ncccc2F)C(=O)c2cnc(NC3CN(C(=O)C4(O)CC4)C3)c(F)c21` (centres unmarked) [compound 108, 4-(2,3-difluorophenyl)-5-fluoro-2-(3-fluoropyridin-2-yl)-6-{[1-(1-hydroxycyclopropane-1-carbonyl)azetidin-3-yl]amino}-4-methyl-3,4-dihydro-2,7-naphthyridin-1(2H)-one, from P7 (ENANT-2)], for which the EC50 came to 123 nM. Under setting [1], the Emax was determined as 76.8%.

With `Cc1c(F)ccc(C2(C)CN(c3ccc(N)cn3)C(=O)c3cnc(NC4CN(C(=O)[C@@H]5C[C@@H]5F)C4)c(F)c32)c1F` (single isomer, unassigned) [compound 104], the EC50 amounted to 32.1 nM. The Emax under setting [1] turned out to be 49.8%.

`COCC(C)(O)C(=O)N1CC(Nc2ncc3c(c2F)C(C)(c2cccc(Cl)c2F)CN(c2nn(C)cc2F)C3=O)C1` (single isomer, unassigned) [compound 47]: the EC50 came out at 264 nM. The “Assay GMean Asy. Max (%)” value under setting [1] is reported as 105%.

On to `Cn1cc(F)c(N2C[C@](C)(c3cccc(Cl)c3F)c3c(cnc(NC4CN(C(=O)C(O)C5CC5)C4)c3F)C2=O)n1` (single isomer, unassigned) [compound 42], for which the 50% effective concentration (EC50) is 59.1 nM. In addition, the Emax under setting [1] was 76.2%.
